From US20240368120A1 (Terns Pharmaceuticals, Inc., priority 2023, published 2024) come the findings set out here.

pEC50: −log10 of the molar value.

This test addresses T1, human GLP-1R receptor (Homo sapiens, UniProt P43220).
T1 construct: expressed in transfected cells
The test is described as follows: GLP-1R low expression cell assay (cAMP TR-FRET, CHO-K1_hGLP-1Rlow_clone10 cells). The format is cell-based. The conditions noted are these: for pEC50: cAMP TR-FRET, 30 min at 25° C.; for Emax: maximum activation relative to control GLP-1 peptide agonist. The gist of the method: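 CHO-K1 cells stably expressing low surface human GLP-1R (clone10), 1,000 cells/well, exposed to 10-point 3-fold compound dilutions for 30 min at 25 °C. cAMP measured by TR-FRET (Eu-cAMP tracer/ULight-anti-cAMP, 15 min). EC50 from Hill fit of duplicate percent activation relative to a parallel GLP-1 control agonist.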

T1 sequence (P43220 24-463): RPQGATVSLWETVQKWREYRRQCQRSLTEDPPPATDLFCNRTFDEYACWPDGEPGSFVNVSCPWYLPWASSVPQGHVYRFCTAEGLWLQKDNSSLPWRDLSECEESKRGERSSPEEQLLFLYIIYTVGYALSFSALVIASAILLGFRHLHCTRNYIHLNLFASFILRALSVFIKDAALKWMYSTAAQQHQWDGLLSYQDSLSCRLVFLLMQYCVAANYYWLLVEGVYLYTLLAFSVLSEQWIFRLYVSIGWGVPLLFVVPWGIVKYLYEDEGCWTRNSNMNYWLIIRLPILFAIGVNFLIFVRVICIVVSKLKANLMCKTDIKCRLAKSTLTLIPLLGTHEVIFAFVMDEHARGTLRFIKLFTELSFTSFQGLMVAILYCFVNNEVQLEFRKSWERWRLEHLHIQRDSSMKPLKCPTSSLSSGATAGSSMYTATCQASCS

A word on the pEC50: it is −log10 of the EC50, conventionally taken in molar units. A high value points to a low EC50. As a reminder, the Emax is the maximal effect, on the per cent scale that the assay sets. Regarding `COc1c(F)c(C(=O)O)cc2c1nc(CN1CCC(c3cccc(OCc4ccc(Cl)cc4F)n3)CC1)n2C` [Compound 337, 2-((4-(6-((4-Chloro-2-fluorobenzyl)oxy)pyridin-2-yl)piperidin-1-yl)methyl)-5-fluoro-4-methoxy-1-methyl-1H-benzo[d]imidazole-6-carboxylic acid], the pEC50 is 7.00 to 8.00 and the Emax was more than 85%.
The like results for `COc1c(F)c(C(=O)O)cc2nc(CN3CCC(c4cccc(OCc5ccc(Cl)cc5F)n4)CC3)n(C)c12` [Compound 338, 2-((4-(6-((4-Chloro-2-fluorobenzyl)oxy)pyridin-2-yl)piperidin-1-yl)methyl)-6-fluoro-7-methoxy-1-methyl-1H-benzo[d]imidazole-5-carboxylic acid] were, in that order, less than 6.00 and 50 to 85%.
The like results for `COc1cc(C(=O)O)c(F)c2c1nc(CN1CCC(c3ccc(F)c(OCc4ccc(C#N)cc4F)c3)CC1)n2C` [Compound 339, 2-((4-(3-((4-Cyano-2-fluorobenzyl)oxy)-4-fluorophenyl)piperidin-1-yl)methyl)-7-fluoro-4-methoxy-1-methyl-1H-benzo[d]imidazole-6-carboxylic acid] were, in that order, 6.00 to 7.00 and more than 85%.
In the case of `COc1cc(C(=O)O)c(F)c2c1nc(CN1CCC(c3ccc(F)c(OCc4ccc(Cl)cc4F)c3)CC1)n2C` [Compound 340, 2-((4-(3-((4-Chloro-2-fluorobenzyl)oxy)-4-fluorophenyl)piperidin-1-yl)methyl)-7-fluoro-4-methoxy-1-methyl-1H-benzo[d]imidazole-6-carboxylic acid], the pEC50 was 7.00 to 8.00 and the Emax was more than 85%.
The corresponding values for `Cn1c(CN2CCC(c3cccc(OCc4ccc(Cl)cc4F)n3)CC2)nc2ccc(C(=O)O)c(O)c21` [Compound 341, 2-((4-(6-((4-Chloro-2-fluorobenzyl)oxy)pyridin-2-yl)piperidin-1-yl)methyl)-7-hydroxy-1-methyl-1H-benzo[d]imidazole-6-carboxylic acid] are 6.00 to 7.00 and more than 85%.
The corresponding values for `COc1cc(C(=O)O)cc2c1nc(Cc1ccc(-c3cccc(OCc4ccc(C#N)cc4F)n3)cc1F)n2C` [Compound 342, 2-(4-(6-((4-cyano-2-fluorobenzyl)oxy)pyridin-2-yl)-2-fluorobenzyl)-4-methoxy-1-methyl-1H-benzo[d]imidazole-6-carboxylic acid] are more than 8.00 and more than 85%.
The like results for `Cn1c(CN2CCC(c3cccc(OCc4ccc(Cl)cc4F)n3)CC2)nc2c(OCCO)cc(C(=O)O)cc21` [Compound 343, 2-((4-(6-((4-Chloro-2-fluorobenzyl)oxy)pyridin-2-yl)piperidin-1-yl)methyl)-4-(2-hydroxyethoxy)-1-methyl-1H-benzo[d]imidazole-6-carboxylic acid] were, in that order, more than 8.00 and more than 85%.
As for `COc1cc(C#N)ccc1COc1cccc(C2CCN(Cc3nc4c(OC)cc(C(=O)O)cc4n3C)CC2)n1` [Compound 344, 2-((4-(6-((4-Cyano-2-methoxybenzyl)oxy)pyridin-2-yl)piperidin-1-yl)methyl)-4-methoxy-1-methyl-1H-benzo[d]imidazole-6-carboxylic acid], the pEC50 was more than 8.00 and the Emax was more than 85%.
`Cn1c(CN2CCC(c3cccc(OCc4ccc(Cl)cc4F)n3)CC2)nc2c(O)c(C(=O)O)ccc21` [Compound 345, 2-((4-(6-((4-Chloro-2-fluorobenzyl)oxy)pyridin-2-yl)piperidin-1-yl)methyl)-4-hydroxy-1-methyl-1H-benzo[d]imidazole-5-carboxylic acid] showed a pEC50 of less than 6.00 and an Emax of 50 to 85%.
The corresponding values for `O=C(O)c1cc(OCF)c2nc(CN3CCC(c4cccc(OCc5ccc(Cl)cc5F)n4)CC3)n(CF)c2c1` [Compound 346, 2-((4-(6-((4-Chloro-2-fluorobenzyl)oxy)pyridin-2-yl)piperidin-1-yl)methyl)-4-(fluoromethoxy)-1-(fluoromethyl)-1H-benzo[d]imidazole-6-carboxylic acid] are 7.00 to 8.00 and more than 85%.
The corresponding values for `O=C(O)c1cc(OCF)c2c(c1)nc(CN1CCC(c3cccc(OCc4ccc(Cl)cc4F)n3)CC1)n2CF` [Compound 347, 2-((4-(6-((4-Chloro-2-fluorobenzyl)oxy)pyridin-2-yl)piperidin-1-yl)methyl)-7-(fluoromethoxy)-1-(fluoromethyl)-1H-benzo[d]imidazole-5-carboxylic acid] are less than 6.00 and 25 to 50%.
The corresponding values for `COc1cc(Cl)ccc1COc1cccc(C2CCN(Cc3nc4c(OC)cc(C(=O)O)cc4n3C)CC2)n1` [Compound 348, 2-((4-(6-((4-Chloro-2-methoxybenzyl)oxy)pyridin-2-yl)piperidin-1-yl)methyl)-4-methoxy-1-methyl-1H-benzo[d]imidazole-6-carboxylic acid] are more than 8.00 and more than 85%.
As to `[2H]C([2H])([2H])Oc1cc(C(=O)O)cc2c1nc(CN1CCC(c3cccc(OCc4ccc(C#N)cc4F)n3)CC1)n2C` [Compound 349, 2-((4-(6-((4-Cyano-2-fluorobenzyl)oxy)pyridin-2-yl)piperidin-1-yl)methyl)-4-(methoxy-d3)-1-methyl-1H-benzo[d]imidazole-6-carboxylic acid], the pEC50 is more than 8.00 and the maximum response (Emax) was more than 85%.
As to `Cn1c(CN2CCC(c3cccc(OCc4cnc(C#N)cc4F)n3)CC2)nc2c(OC(F)F)cc(C(=O)O)cc21` [Compound 350, 2-((4-(6-((6-Cyano-4-fluoropyridin-3-yl)methoxy)pyridin-2-yl)piperidin-1-yl)methyl)-4-(difluoromethoxy)-1-methyl-1H-benzo[d]imidazole-6-carboxylic acid], the pEC50 is 6.00 to 7.00 and the Emax was more than 85%.
The corresponding values for `CCC(F)Oc1cc(C(=O)O)cc2c1nc(CN1CCC(c3cccc(OCc4ccc(Cl)cc4F)n3)CC1)n2C` (centres unmarked) [Compound 351, 2-((4-(6-((4-Chloro-2-fluorobenzyl)oxy)pyridin-2-yl)piperidin-1-yl)methyl)-4-(1-fluoropropoxy)-1-methyl-1H-benzo[d]imidazole-6-carboxylic acid] are 7.00 to 8.00 and more than 85%.
The corresponding values for `Cn1c(CN2CCC(c3cccc(OCc4ccc(C#N)cc4F)n3)CC2)nc2c(Oc3ccc(F)cc3)cc(C(=O)O)cc21` [Compound 352, 2-((4-(6-((4-Cyano-2-fluorobenzyl)oxy)pyridin-2-yl)piperidin-1-yl)methyl)-4-(4-fluorophenoxy)-1-methyl-1H-benzo[d]imidazole-6-carboxylic acid] are 6.00 to 7.00 and more than 85%.
The corresponding values for `Cn1c(CN2CCC(c3cccc(OCc4ccc(Cl)cc4F)n3)CC2)nc2c(O[C@H]3C[C@H](F)C3)cc(C(=O)O)cc21` [Compound 353, 2-((4-(6-((4-Chloro-2-fluorobenzyl)oxy)pyridin-2-yl)piperidin-1-yl)methyl)-4-((1r,3r)-3-fluorocyclobutoxy)-1-methyl-1H-benzo[d]imidazole-6-carboxylic acid] are 7.00 to 8.00 and more than 85%.
Regarding `COc1cc(C#N)ncc1COc1cccc(C2CCN(Cc3nc4c(OC(F)F)cc(C(=O)O)cc4n3C)CC2)n1` [Compound 354], the negative logarithm of the EC50 (pEC50) was 7.00 to 8.00 and the Emax was more than 85%.
The like results for `Cn1c(CN2CCC(c3ccnnc3OCc3ccc(Cl)cc3F)CC2)nc2c(OC(F)F)cc(C(=O)O)cc21` [Compound 355, 2-((4-(3-((4-Chloro-2-fluorobenzyl)oxy)pyridazin-4-yl)piperidin-1-yl)methyl)-4-(difluoromethoxy)-1-methyl-1H-benzo[d]imidazole-6-carboxylic acid] were, in that order, 6.00 to 7.00 and more than 85%.
The corresponding values for `Cn1c(CN2CCC(c3ncc(F)c(OCc4ccc(Cl)cc4F)n3)CC2)nc2c(OC(F)F)cc(C(=O)O)cc21` [Compound 356, 2-((4-(4-((4-Chloro-2-fluorobenzyl)oxy)-5-fluoropyrimidin-2-yl)piperidin-1-yl)methyl)-4-(difluoromethoxy)-1-methyl-1H-benzo[d]imidazole-6-carboxylic acid] are 7.00 to 8.00 and more than 85%.
The corresponding values for `Cn1c(CN2CCC(c3cccc(OCc4ccc(Cl)cc4F)n3)CC2)nc2c(OCC3CC3)cc(C(=O)O)cc21` [Compound 357, 2-((4-(6-((4-Chloro-2-fluorobenzyl)oxy)pyridin-2-yl)piperidin-1-yl)methyl)-4-(cyclopropylmethoxy)-1-methyl-1H-benzo[d]imidazole-6-carboxylic acid] are more than 8.00 and more than 85%.
`CCOc1cc(C(=O)O)cc2c1nc(CN1CCC(c3cccc(OCc4ccc(Cl)cc4F)n3)CC1)n2C` [Compound 358, 2-((4-(6-((4-Chloro-2-fluorobenzyl)oxy)pyridin-2-yl)piperidin-1-yl)methyl)-4-ethoxy-1-methyl-1H-benzo[d]imidazole-6-carboxylic acid] displayed an Emax of more than 85%.
Turning to `CC(F)Oc1cc(C(=O)O)cc2c1nc(CN1CCC(c3cccc(OCc4ccc(Cl)cc4F)n3)CC1)n2C` (centres unmarked) [Compound 359, 2-((4-(6-((4-Chloro-2-fluorobenzyl)oxy)pyridin-2-yl)piperidin-1-yl)methyl)-4-(1-fluoroethoxy)-1-methyl-1H-benzo[d]imidazole-6-carboxylic acid], the pEC50 is more than 8.00 and the Emax is more than 85%.
In the case of `Cn1c(CN2CCC(c3cccc(COc4ccc(Cl)cc4F)n3)C2)nc2c(OC(F)F)cc(C(=O)O)cc21` (centres unmarked) [Compound 362, 2-((3-(6-((4-Chloro-2-fluorophenoxy)methyl)pyridin-2-yl)pyrrolidin-1-yl)methyl)-4-(difluoromethoxy)-1-methyl-1H-benzo[d]imidazole-6-carboxylic acid], the pEC50 was less than 6.00 and the maximum response (Emax) lay within 50 to 85%.
